This is an account of results in patent publication US4786755A, “Diphenic acid monoamides” (Warner-Lambert Company, priority 1986, dated 1988).

Assay [1] relates to Isolated Guinea Pig Lung Parenchyma. In words: Smooth Muscle Receptor Agonism-Antagonism Activity Evaluations In Vitro (IVAS), LTC4-induced contraction. It counts as cell-based.
Source text: Smooth Muscle Receptor Agonism-Antagonism Activity Evaluations In Vitro (IVAS) Isolated Guinea Pig Lung Parenchyma
The potency of a test compound for receptor stimulation or antagonism, for example, can easily be determined since the concentration of the compound to which the muscle cell, or specialized responsive area on this cell, is exposed can be easily controlled and correlated with the recorded activity of muscle contraction or relaxation.
The procedures described herein are specifically concerned with the definition of a test drug action on isolated lung strips. Drug action is characterized either by an action per se on the tissues or by interaction with known smooth muscle receptor stimulants or antagonists.
Usually, the tests will be used to evaluate the ability of a test compound to antagonize the contraction induced by standard agonists in this case LTC4. A relative potency is derived by comparison with one of the standard blocking drugs. In caution, relative potencies of test compounds to known standards are valid only if full dose response curves are generated and the compound compared generate parallel dose/response curves with common maxima. Appropriate "within-trial" comparisons are also necessary.
Molecular antagonists compete with the agonist for the receptor. […] A physiological antagonist produces a response by action on a different receptor that causes an effect in opposition to the agonism.
A permanent isolated bath system is used which facilitates the vertical suspension of a segment of tissue in a small volume of a specific nutritive buffer. Frittered glass terminals provide dispersed bubbles of 95% oxygen and 5% carbon dioxide at the base of the individual tissue baths and the buffer reservoir. All baths and the reservoir are double-jacketed and water at 37° C. is circulated through the jacket of the baths to provide stable temperature regulation. The baths are arranged so that fresh solution from the reservoir passes through a jacketed glass coil to the base of the bath. The bubbling gas stirs the bath solution. During equilibration, fresh solution enters and excess solution is allowed to overflow. Unless a particular drug is required throughout the experiment and it is incorporated in the buffer, individual drugs are introduced directly into the bath by long hypodermic needles to the base of the bath without disturbing the tissue. Drugs are removed by rapidly draining the tissue bath from the bottom and refilling. Tissues are washed a minimum of six times. The emptying and refilling sequence takes only five seconds.
The contraction and relaxation of the smooth muscle preparation can be recorded either isotonically (change in length) or isometrically (change in tension). Isometric transducers are more sensitive and proportional. Isometric contractions are recorded electronically using Grass FT 0.03C force displacement transducers and Beckman Dynagraph recorders. The tissue is suspended vertically with one end of the segment anchored to the bottom of the bath and the other end attached to the mechanical electrical transducer muscle level. The electrical output of this transducer moves a pen on a moving chart in proportion to the force displacement.
Lung tissue is obtained from normal male guinea pigs. The heart and lungs are removed as a unit, placed in buffer, and the lungs are perfused with buffer by the spontaneously beating heart for several minutes.
Another assay deals with T1, leukotriene receptor (Cavia porcellus, UniProt Q2NNR5).
T1 construct: 20 mg original tissue wet weight of guinea pig lung membranes; tissue Kuiper Rabbit Farm, Gary, IN (animals); host or cells: guinea pig lung, crude membranes
T1 sequence (Q2NNR5 1-340): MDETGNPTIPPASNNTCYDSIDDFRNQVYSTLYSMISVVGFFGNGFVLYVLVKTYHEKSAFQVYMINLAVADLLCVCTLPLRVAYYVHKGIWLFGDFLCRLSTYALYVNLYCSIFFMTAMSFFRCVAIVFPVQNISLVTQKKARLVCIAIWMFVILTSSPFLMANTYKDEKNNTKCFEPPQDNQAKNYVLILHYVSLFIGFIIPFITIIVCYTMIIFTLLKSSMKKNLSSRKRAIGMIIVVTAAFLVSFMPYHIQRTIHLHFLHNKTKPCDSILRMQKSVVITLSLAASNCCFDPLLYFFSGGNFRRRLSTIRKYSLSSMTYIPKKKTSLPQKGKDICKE
In words: Binding of ^3 H-Leukotriene D4 to Guinea Pig Lung Membranes (RBL). Conditions: ^3 H-LTD4, guinea pig lung membranes; read-out: IC50 RBL1. As for the experimental part:
Additionally, the activity, of the compounds having the Formula I of the present invention is determined by the well known leukotriene receptor binding assay that is described by R. F. Bruns, W. J. Thomsen and T. A. Pugsley in Life Sciences, 33, 645 (1983) or the Herxheimer in vivo antiallergy test described in H. Herxheimer, J. Physiol. (London), Vol. 177, p. 251 (1952).
Binding of ^3 H-Leukotriene D4 to Guinea Pig Lung Membranes (RBL)
[14,15-^3 H]leukotriene D4 (^3 H-LTD4) (25 Ci/mmol and 40 Ci/mmol) is purchased from New England Nuclear. Unlabeled LTC4 is a gift of Ono Pharmaceuticals (Japan). LTC4, LTD4, and LTE4 are purchased as methyl esters from Paesel GmbH (Frankfurt, W. Germany). Concentrations of the Paesel leukotrienes are calculated from their absorbance at 280 nm. Leukotriene esters are saponified overnight under N2 in 3.3% potassium carbonate at room temperature. Tritiated leukotrienes are stored as received from New England Nuclear at -20° C. Ono LTC4 (5 μg/ml is stored at -60° C. in phosphate buffer pH 6.8. Saponified Paesel leukotrienes are stored at -60° C. in 3.3% potassium carbonate (pH 9.0-9.5). Aliquots of leukotrienes are taken from stock solutions immediately after thawing, after which the stock solutions are immediately refrozen. 2-Amino-2-(hydroxymethyl)-1,3-propanediol (Tris) is Sigma pH 7.7 pre-set crystals, and dimethylsulfoxide is Aldrich Gold Label.
Preparation of crude lung membranes
Two pairs of lungs (1.3 g) from freshly sacrificed 300 g male guinea pigs (older animals gave substantially lower binding) from Kuiper Rabbit Farm, Gary, IN are disrupted with a Polytron PT 10 (setting 4) for 30 seconds in 20 ml ice-cold 50 mM Tris adjusted with HCl to pH 7.7 at 25° C. (Tris buffer), filtered through a single layer of gauze to remove connective tissue, and centrifuged at 50,000 xg for ten min. The pellet is resuspended by homogenization with a Polytron in 20 ml Tris buffer, centrifuged at 50,000 xg for ten min., resuspended, incubated at 37° C. for 30 minutes, and centrifuged again. The final pellet is resuspended in Tris buffer and either used fresh or stored at -70° C.
All incubations are in triplicate for 60 minutes at 25° C. in 12×75 mm polystyrene tubes containing 1 ml Tris buffer with 20 mg original tissue wet weight of guinea pig lung membranes, 0.2 nM ^3 H-LTD4 (6,000-11,000 cpm), 10 mM MgCl2, and 1% dimethylsulfoxide. Leukotrienes are diluted in Tris buffer. All other test compounds are dissolved at 10 mM in dimethylsulfoxide on the same day as the experiment, and diluted in dimethylsulfoxide to 100× the final incubation concentration. Control incubations receive an equal volume (10 μl) of dimethylsulfoxide; the resulting concentration of dimethylsulfoxide had no effect on binding. ^3 H-LTD4 is diluted to 2 nM in Tris buffer. The membrane suspension (20 mg/0.89 ml) contains sufficient MgCl2 to give 10 mM final concentration in the incubation. […] All additions are performed at 0° C. Immediately after the last addition, the incubation is initiated by agitating the rack of tubes on a vortex mixer and warming to 25° C. in a water bath. Tubes are vortexed at least once more during the incubation to ensure that the membranes remained suspended. Incubations are terminated after 60 minutes by filtering under reduced pressure through 25 mm Whatman GF/B filters followed by rapid washing three times with 4 ml of ice-cold Tris buffer. Filters are added to scintillation vials with 8 ml Formula 947 (New England Nuclear), left overnight, shaken, and the radioactivity counted in a scintillation counter (efficiency 40%). Nonspecific binding, defined as binding of ^3 H-LTD4 in the presence of 100 nM LTC4, is 300-500 cpm for all lots of ^3 H-LTD4. Binding to the filters in the absence of tissue is about 100 cpm, and is not affected by unlabeled LTC4. Specific binding, defined as total binding minus nonspecific binding, varied considerably from lot to lot of ^3 H-LTD4. […]

The subject of the next assay is Human Basophils. In words: Histamine Release from Human Basophils (HHB). Type of assay: cell-based. Conditions: Homo sapiens, 33 μM cpd. The source says:
Histamine Release from Human Basophils (HHB) Procedure for Quantitating Active Histamine Release, and its Inhibition by Drugs, from Basophils of Human Blood Using an Automated Fluorometric Histamine Assay
Mediator (histamine) release from human blood basophils is an assay which provides a model for evaluating potential antiallergy (mediator release inhibitors) compounds.
Blood from allergic donors is obtained from volunteers through the Community Research Clinic. The leukocytes are removed after Hespan® sedimentation, washed and concentrated using calcium and magnesium free Hepes buffered saline and resuspended in Hepes Hepes buffered saline with 1 mM calcium and magnesium added back. The cells are incubated briefly at room temperature with either buffer alone (for measuring spontaneous release and challenge agent stimulated release) 6% perchloric acid (for measuring total available histamine in the cells) or drug at various concentrations. The cells are then either treated with buffer alone (to measure control spontaneous and drug effect on spontaneous release) or appropriate challenge agent (e.g., anti-IgE, antigen) mixed and incubated for 45 minutes at 37° C. in a shaking water bath. The reaction is stopped by centrifugation and the supernate is poured into autoanalyzer sample cups and samples assayed for assayed for histamine content using an automated fluorometric assay. By comparing the histamine release of drug-treated cells and the challenge agent controls, drug inhibition of mediator (histamine) release can be evaluated.
Histamine release is induced by (1) an aqueous antigen extract (short rageweed or house dust), or (2) anti-IgE antisera. Whole human blood is obtained from volunteers through the Community Research Clinic (CRC-92). Volunteers are chosen on the basis of adequate histamine release induced by antigen, or antiIgE antisera challenge. Leukocytes are incubated in vitro with the challenge agents at several concentrations. Dose-response curves for each volunteer, using each challenge agent, are generated. Test compounds are evaluated for inhibition of a near maximal response to one or more challenge agents. By including appropriate controls, it is possble to measure the effect of the test compound, at various concentrations, in several ways: (1) the effect of the compound on histamine release for each challenge agent; (2) the effect of the test compound on spontaneous release of histamine in the absence of the challenge agent (buffer alone); and (3) the effect of the test compound on the histamine assay.
Histamine is assayed using an automated continuous flow system which quantitates samples of 0.4 ml or more in volume, and concentrations of approximately 0.5 ng/ml or more. The rate of analysis is 30 samples/hour.
Methods of preparing leukocytes for this assay are described by Theuson, et al, J. of Immunology, Vol. 123, p. 426 (1979).
Samples are run in triplicate, using either 1.5 ml polypropylene capped reaction tubes, or 5.0 ml plastic uncapped tubes. Test compounds and challenge agents are prepared in HACM buffer, as described above. Fixed volume pipettes are used.
Test compound or vehicle control is added to three reaction tubes at 1.5×the final desired concentration (i.e., 400 μl of test compound per 600 μl total reaction volume). One hundred μl of cells is added to each tube and the mixture is incubated for eight minutes at room temperature, and two minutes at 37° C. before antigen or other stimulus challenge. One hundred μl of the challenge agent at 6× the final concentration is then added, and the final mixture is incubated at 37° C. for 45 minutes in a shaking water bath. This ensures that the cell preparation is constantly in suspension. The reaction is stopped by centrifugation at 2000 RPM for three minutes at 4° C. The supernate (.perspectiveto.500 μl) is poured into 2.0 ml autoanalyzer beakers and assayed for histamine by the fluorometric method. […]

The mark [2] stands for this setting: Tripeptide challenge, read-out: HHB (Tripeptide), percent inhibition of histamine release.
[3] abbreviates: antigen challenge, read-out: HHB (antigen), percent inhibition of histamine release.

Where two headings read alike, the source gives them in different places.

Take `NCCc1c[nH]cn1` [histamine]: in assay [1] (3×10^-5 M, isolated guinea pig lung strip), the “contraction, of maximum” value is given as “approximately 75%”. Further, the minimal effective concentration in assay [1] (Cavia porcellus, isolated guinea pig lung strip, read-out: threshold dose (contraction of lung strip)) was approximately 3 µM.
`CC(C)(C)c1cc(CCc2ccc(NC(=O)c3ccccc3-c3ccccc3C(=O)O)cc2)cc(C(C)(C)C)c1O` [Example 14, [1,1'-Biphenyl]-2-carboxylic acid, 2'-[[[4-[2-[3,5-bis(1,1-dimethylethyl)-4-hydroxyphenyl]ethyl]phenyl]amino]carbonyl]-]: at leukotriene receptor, the IC50 (commonly the concentration needed to halve the response being measured) was 3.7 µM. Moreover, the inhibition (usually the drop in the measured response relative to a control, in per cent) at 33 µM in the assay with Human Basophils (setting [2]) is 96%; with Human Basophils (setting [3]), 41%.
Regarding `O=C(O)c1ccccc1-c1ccccc1C(=O)Nc1ccccc1CCc1ccc(Cl)c(Cl)c1` [Example 12, [1,1'-Biphenyl]-2-carboxylic acid, 2'-[[[2-[2-(3,4-dichlorophenyl)ethyl]phenyl]amino]carbonyl]-], on leukotriene receptor, the IC50 was 13.7 µM. Besides, the results for the inhibition at 33 µM in the assay on Human Basophils (setting [2]) and in the assay on Human Basophils (setting [3]) were 99% and -42%, respectively.
`Cc1ccc(CCc2ccc(NC(=O)c3ccccc3-c3ccccc3C(=O)O)cc2)cc1` [Example 18, [1,1'-Biphenyl]-2-carboxylic acid, 2'-[[[4-[2-(4-methylphenyl)ethyl]phenyl]amino]carbonyl]-]: the IC50 on leukotriene receptor is 16.5 µM. Besides, the inhibition at 33 µM in the assay on Human Basophils (setting [2]) came to 98%; in the assay on Human Basophils (setting [3]) it was 60%.
As for `O=C(O)c1ccccc1-c1ccccc1C(=O)Nc1cccc(Cc2ccc(Cl)c(Cl)c2)c1` [Example 17, [1,1'-Biphenyl]-2-carboxylic acid, 2'-[[[3-[(3,4-dichlorophenyl)methyl]phenyl]amino]carbonyl]-], the IC50 at leukotriene receptor was found to be 10.5 µM. Also, in the assay with Human Basophils (setting [2]), the inhibition at 33 µM was found to be 97%.
In the case of `CCCCC/C=C\C\C=C/C=C/C=C/[C@@H](SC[C@H](NC(=O)CC[C@H](N)C(=O)O)C(=O)NCC(=O)O)[C@@H](O)CCCC(=O)O` [LTC4, leukotriene C4], the “response (r1), of maximum” value in assay [1] (1 ng/ml LTC4, isolated lung strip) is recorded as 15-20%.
As to `O=C(O)c1ccccc1-c1ccccc1C(=O)Nc1ccc(CCc2ccc(C(F)(F)F)cc2)cc1` [Example 10], the IC50 at leukotriene receptor amounted to 9.7 µM. Besides, the inhibition at 33 µM in the assay with Human Basophils (setting [2]) is 74%; in the assay with Human Basophils (setting [3]), 62%.
As to `O=C(C=Cc1ccc(Cl)c(Cl)c1)c1ccc(NC(=O)c2ccccc2-c2ccccc2C(=O)O)cc1` [Example 46, [1,1'-Biphenyl]-2-carboxylic acid, 2'-[[[4-[1-oxo-3-(3,4-dichlorophenyl)-2-propenyl]phenyl]amino]-carbonyl]-], the IC50 on leukotriene receptor was determined as 5.7 µM.
With `O=C(CCc1ccc(Cl)cc1)c1ccc(NC(=O)c2ccccc2-c2ccccc2C(=O)O)cc1` [Example 49, [1,1'-Biphenyl]-2-carboxylic acid, 2'-[[[4-[1-oxo-3-(4-chlorophenyl)propyl]phenyl]amino]carbonyl]-], at leukotriene receptor, the IC50 worked out at 7.5 µM.
